Series [1] is described as follows: Solubility in simulated intestinal fluids (FaSSIF / FeSSIF). To be noted: 25 °C, thermodynamic from solid.
Series [2] is described as follows: Kinetic solubility analysis (CLND: total chemiluminescent nitrogen determination). To be noted: 1.0% DMSO, 24-hour incubation at ambient temperature, maximum theoretical concentration 100 μM; for pH 2 solubility: 0.1N HCl; for pH 7 solubility: 1×PBS buffer (pH 7.4).
Setting [3] is: fasted state simulated intestinal fluid (FaSSIF), fassif.
[4] abbreviates: fed state simulated intestinal fluid (FeSSIF), fessif.

Results on four compounds are retold here after patent US12084467B2, “Therapeutic compounds for HIV virus infection” (Gilead Sciences, Inc., priority 2021, dated 2024).

As usually defined, the solubility is the concentration that dissolves in the medium under given conditions.

≈ marks a conversion by molar mass, not a printed value.

Compound `CC(C)(C#Cc1ccc(-c2ccc(Cl)c3c(N(C(=O)[C@@H]4C[C@H]4C(=O)O)S(C)(=O)=O)nn(CC(F)(F)F)c23)c([C@H](Cc2cc(F)cc(F)c2)NC(=O)Cn2nc(C(F)(F)F)c3c2C(F)(F)[C@@H]2C[C@H]32)n1)S(C)(=O)=O` [Compound 16, (1R,2R)-2-((4-chloro-7-(2-((S)-1-(2-((3bS,4aR)-5,5-difluoro-3-(trifluoromethyl)-3b,4,4a,5-tetrahydro-1H-cyclopropa[3,4]cyclopenta[1,2-c]pyrazol-1-yl)acetamido)-2-(3,5-difluorophenyl)ethyl)-6-(3-methyl-3-(methylsulfonyl)but-1-yn-1-yl)pyridin-3-yl)-1-(2,2,2-trifluoroethyl)-1H-indazol-3-yl)(methylsulfonyl)carbamoyl)cyclopropane-1-carboxylic acid] returned a solubility in series [1] (setting [3]) of 21 µg/mL (≈ 19.4 µM). Moreover, in series [1] (setting [4]), the solubility is 6 µg/mL (≈ 5.55 µM). For the same compound, in series [2], the “pH 2 solubility” value stood at 1 μM and the “pH 7 solubility” value was found to be 44 μM.

`CC(C)(C#Cc1ccc(-c2ccc(Cl)c3c(N(C(=O)C4(C(=O)O)CC4)S(C)(=O)=O)nn(CC(F)(F)F)c23)c([C@H](Cc2cc(F)cc(F)c2)NC(=O)Cn2nc(C(F)(F)F)c3c2C(F)(F)[C@@H]2C[C@H]32)n1)S(C)(=O)=O` [Compound 18, 1-((4-chloro-7-(2-((S)-1-(2-((3bS,4aR)-5,5-difluoro-3-(trifluoromethyl)-3b,4,4a,5-tetrahydro-1H-cyclopropa[3,4]cyclopenta[1,2-c]pyrazol-1-yl)acetamido)-2-(3,5-difluorophenyl)ethyl)-6-(3-methyl-3-(methylsulfonyl)but-1-yn-1-yl)pyridin-3-yl)-1-(2,2,2-trifluoroethyl)-1H-indazol-3-yl)(methylsulfonyl)carbamoyl)cyclopropane-1-carboxylic acid]: the solubility is 42 µg/mL (≈ 38.9 µM) in series [1] (setting [3]) and 21 µg/mL (≈ 19.4 µM) in series [1] (setting [4]). Further, the “pH 2 solubility” value in series [2] was 1 μM. Also, the “pH 7 solubility” value in series [2] was 8 μM.

As to `CC(C)(C#Cc1ccc(-c2ccc(Cl)c3c(N(C(=O)c4ccccc4C(=O)OCOP(=O)(O)O)S(C)(=O)=O)nn(CC(F)(F)F)c23)c([C@H](Cc2cc(F)cc(F)c2)NC(=O)Cn2nc(C(F)(F)F)c3c2C(F)(F)[C@@H]2C[C@H]32)n1)S(C)(=O)=O` [Compound 19, (phosphonooxy)methyl 2-((4-chloro-7-(2-((S)-1-(2-((3bS,4aR)-5,5-difluoro-3-(trifluoromethyl)-3b,4,4a,5-tetrahydro-1H-cyclopropa[3,4]cyclopenta[1,2-c]pyrazol-1-yl)acetamido)-2-(3,5-difluorophenyl)ethyl)-6-(3-methyl-3-(methylsulfonyl)but-1-yn-1-yl)pyridin-3-yl)-1-(2,2,2-trifluoroethyl)-1H-indazol-3-yl)(methylsulfonyl)carbamoyl)benzoate], the concentration in solution in series [1] (setting [3]) (solubility) came to 816 µg/mL (≈ 665 µM). Further, the concentration in solution in series [1] (setting [4]) (solubility) came to 487 µg/mL (≈ 397 µM). Moreover, in series [2], the “pH 2 solubility” value came out at 2 μM and the “pH 7 solubility” value stood at 75 μM.

On to `CC(C)(C#Cc1ccc(-c2ccc(Cl)c3c(N(C(=O)c4ccccc4CN(CCC(=O)O)C(=O)OCOP(=O)(O)O)S(C)(=O)=O)nn(CC(F)(F)F)c23)c([C@H](Cc2cc(F)cc(F)c2)NC(=O)Cn2nc(C(F)(F)F)c3c2C(F)(F)[C@@H]2C[C@H]32)n1)S(C)(=O)=O` [Compound 21, 3-((2-((4-chloro-7-(2-((S)-1-(2-((3bS,4aR)-5,5-difluoro-3-(trifluoromethyl)-3b,4,4a,5-tetrahydro-1H-cyclopropa[3,4]cyclopenta[1,2-c]pyrazol-1-yl)acetamido)-2-(3,5-difluorophenyl)ethyl)-6-(3-methyl-3-(methylsulfonyl)but-1-yn-1-yl)pyridin-3-yl)-1-(2,2,2-trifluoroethyl)-1H-indazol-3-yl)(methylsulfonyl)carbamoyl)benzyl)(((phosphonooxy)methoxy)carbonyl)amino)propanoi c acid], for which the solubility in series [1] (setting [3]) was 1110 µg/mL (≈ 835 µM). The solubility in series [1] (setting [4]) was 1420 µg/mL (≈ 1070 µM). In series [2], the “pH 2 solubility” value turned out to be 1 μM and the “pH 7 solubility” value is 100 μM.
